The text below walks through data of EP1089755B1, “PHARMACEUTICAL PREPARATIONS FOR USE IN COMBATTING OR PREVENTING SURFACE INFECTIONS CAUSED BY MICROORGANISMS” (priority 1998, dated 2000).

One experiment concerns C. tropicana Y140. The experiment is described as follows: MIC of antifungal agents (96-well turbidity assay, 24 hours). Type of experiment: cell-based. As to conditions: isolate Y140 (RPMI), RPMI-medium instead of SLM, read-out: minimum inhibitory concentrations (MIC).
The subject of experiment [1] is C. glabrata Y110. The experiment is described as above. Type of experiment: cell-based. The note with it: for MIC: Nakaseomyces glabratus, Y110, 24 h, read-out: minimum inhibitory concentrations (MIC).
The next experiment has as its system C. glabrata Y112. The experiment is described as above. It is filed as cell-based. The note with it: Nakaseomyces glabratus, isolate Y112, SLM, read-out: minimum inhibitory concentrations (MIC).
The next experiment concerns C. albicans Y127. Described as above. As to conditions: isolate Y127, SLM; for MIC: Candida albicans, read-out: minimum inhibitory concentrations (MIC). It is filed as cell-based.
The test system of another experiment is C. albicans ATCC 10231. The description is as above. It is filed as cell-based. As to conditions: Candida albicans, isolate 10231 (ATCC strain), SLM, read-out: minimum inhibitory concentrations (MIC).
The next experiment deals with C. glabrata Y111. The experiment is described as above. Type of experiment: cell-based. As to conditions: Nakaseomyces glabratus, isolate Y111, SLM, read-out: minimum inhibitory concentrations (MIC).
For another experiment, the system named is C. albicans Y098. Described as above. It is filed as cell-based. As to conditions: Candida albicans, isolate Y098, SLM, read-out: minimum inhibitory concentrations (MIC).
Another experiment deals with C. albicans Y106. The description is as above. As to conditions: Candida albicans, isolate Y106, SLM, read-out: minimum inhibitory concentrations (MIC). It is filed as cell-based.
Experiment [2] deals with C. glabrata Y110. Nature of the experiment: Synergy experiments (8 by 8 dilution matrix, Prichard and Shipman method). It is filed as cell-based, Candida glabrata.
Experiment [3] has as its system C. glabrata Y110. The experiment is described as follows: Candida growth inhibition and MIC at several pH's in SLM or RPMI (96-well turbidity assay). As to conditions: for MIC: Nakaseomyces glabratus, read-out: minimal inhibitory concentrations (MIC). Type of experiment: cell-based, Candida glabrata.
The next experiment has as its system Candida glabrata Y110. Nature of the experiment: MIC in the presence of saliva (SLM or SLM/Saliva, pH 7.5). It is filed as cell-based. The note with it: Nakaseomyces glabratus.

Values after ≈ are worked out from the molar mass of the structure shown.

In the case of `Nc1nc(=O)[nH]cc1F` [5-Fluorocytosine, 5-fluorocytosine], the MIC turned out to be 35 ± 7.07 µg/mL in the experiment on C. tropicana Y140 and 0.029 ± 0.005 µg/mL in the experiment on C. glabrata Y110 [1] (isolate Y110 (RPMI), RPMI-medium instead of SLM).
For the molecule `C[C@@H]1[C@H](O)[C@@H](C)/C=C/C=C/C=C/C=C/C=C/C=C/C=C/[C@H](O[C@@H]2O[C@H](C)[C@@H](O)[C@H](N)[C@@H]2O)C[C@@H]2O[C@](O)(C[C@@H](O)C[C@@H](O)[C@H](O)CC[C@@H](O)C[C@@H](O)CC(=O)O[C@H]1C)C[C@H](O)[C@H]2C(=O)O` [Amphoterricin B, Amphotericin B], the MIC with C. glabrata Y112 was determined as 0.4 ± 0.05 µg/mL; in the experiment with C. glabrata Y110 [1] (isolate Y110, SLM) it was 0.173 ± 0.06 µg/mL; in the experiment on C. albicans Y127, 0.15 µg/mL; in the experiment with C. albicans ATCC 10231, 0.06 ± 0.05 µg/mL; in the experiment on C. glabrata Y111 it was 0.14 ± 0.07 µg/mL; in the experiment with C. albicans Y098 it was 0.08 ± 0.03 µg/mL. Further, the MIC in the experiment on C. albicans Y106 was determined as 0.082 ± 0.03 µg/mL. Also, the “minimum inhibitory concentrations (MIC)” value in the experiment with C. albicans Y127 turned out to be 0.15 ± 0.07 µg/mL.
In general, inhibition refers to the drop in the measured response relative to a control, in per cent. Regarding `OC(Cn1cncn1)(Cn1cncn1)c1ccc(F)cc1F` [Fluconazole, fluconazole], the MIC with C. glabrata Y110 [1] (isolate Y110, SLM) stood at 159 µg/mL; in the experiment on C. albicans Y127, 10 µg/mL; in the experiment with C. glabrata Y111 it was 24 ± 7 µg/mL; with C. glabrata Y110 [3] (Y110, RPMI, pH 5.0, 24 hours), 250 µg/mL (≈ 816 µM); in the experiment with C. glabrata Y110 [3] (Y110, RPMI, pH 6.0, 24 hours) it was 110 µg/mL (≈ 359 µM); in the experiment on C. glabrata Y110 [3] (Y110, RPMI, pH 7.0, 24 hours) it was 60 µg/mL (≈ 196 µM). For the same molecule, the MIC in the experiment on C. glabrata Y110 [3] (Y110, SLM, pH 5.6, 24 hours) amounted to 200 µg/mL (≈ 653 µM); with C. glabrata Y110 [3] (Y110, SLM, pH 6.5, 24 hours), 100 µg/mL (≈ 327 µM); in the experiment with C. glabrata Y110 [3] (Y110, SLM, pH 7.5, 24 hours) it was 100 µg/mL (≈ 327 µM); in the experiment on Candida glabrata Y110 (Y110, SLM, pH 7.5), 100 µg/mL; with Candida glabrata Y110 (Y110, SLM/Saliva (50%/50%), 24 hours) it was 40 µg/mL; with Candida glabrata Y110 (Y110, SLM, pH 7.5, 24 hours) it was 100 µg/mL. Also, the MIC in the experiment on C. albicans Y106 was 10 µg/mL. For the same molecule, the “minimum inhibitory concentrations (MIC)” value in the experiment with C. glabrata Y110 [1] (isolate Y110, SLM) stood at 156 ± 50 µg/mL. Also, the UV with C. glabrata Y110 [2] (Fluconazole 0.0033 mg/ml alone) came to 1.150; in the experiment on C. glabrata Y110 [2] (Fluconazole 0.0066 mg/ml alone) it was 1.167; in the experiment with C. glabrata Y110 [2] (Fluconazole 0.01 mg/ml alone), 1.154; in the experiment with C. glabrata Y110 [2] (Fluconazole 0.033 mg/ml alone), 1.127; in the experiment on C. glabrata Y110 [2] (Fluconazole 0.1 mg/ml alone), 0.618; in the experiment on C. glabrata Y110 [2] (Fluconazole 0.2 mg/ml alone), 0.003. Also, the UV worked out at 0.003 in the experiment on C. glabrata Y110 [2] (Fluconazole 0.33 mg/ml alone) and 0.004 in the experiment with C. glabrata Y110 [2] (Fluconazole 0.5 mg/ml alone). The inhibition at 3.3 µg/mL in the experiment on C. glabrata Y110 [2] (Nakaseomyces glabratus, Y110, Fluconazole 0.0033 mg/ml alone) amounted to 0%. For the same molecule, in the experiment with C. glabrata Y110 [2] (Nakaseomyces glabratus, Y110, Fluconazole 0.0066 mg/ml alone), the inhibition at 6.6 µg/mL was 0%. In the experiment on C. glabrata Y110 [2] (Nakaseomyces glabratus, Y110, Fluconazole 0.01 mg/ml alone), the inhibition at 10 µg/mL stood at 0%. Besides, the inhibition at 33 µg/mL in the experiment on C. glabrata Y110 [2] (Nakaseomyces glabratus, Y110, Fluconazole 0.033 mg/ml alone) came out at 0%. For the same molecule, in the experiment on C. glabrata Y110 [2] (Nakaseomyces glabratus, Y110, Fluconazole 0.1 mg/ml alone), the inhibition at 100 µg/mL is 39.5%. The inhibition at 200 µg/mL with C. glabrata Y110 [2] (Nakaseomyces glabratus, Y110, Fluconazole 0.2 mg/ml alone) came out at 99.8%. Besides, the inhibition at 330 µg/mL in the experiment with C. glabrata Y110 [2] (Nakaseomyces glabratus, Y110, Fluconazole 0.33 mg/ml alone) came out at 99.8%. Further, the inhibition at 500 µg/mL in the experiment on C. glabrata Y110 [2] (Nakaseomyces glabratus, Y110, Fluconazole 0.5 mg/ml alone) is 99.6%. The “effect of an increase in pH of the medium on inhibition” value in the experiment on C. glabrata Y110 [3] (SLM and RPMI) is reported as “more efficient inhibition”.
